In US5089494A, “4-phenylphthalazine derivatives which inhibit platelet aggregation” (Mitsubishi Kasei Corporation, priority 1990, dated 1992):

Legend:
platelet aggregation [1] = experiment: Platelet aggregation-inhibitory activity in vitro (collagen-induced, rat platelet rich plasma); format: cell-based; conditions: for inhibition at 1 µM / inhibition at 0.1 µM / inhibition at 0.3 µM: read-out: in vitro Inhibitory ratio; for inhibition at 0.3 µM: 3 × 10^-7 M
Procedure: Platelet aggregation-inhibitory activity in vitro
Rat arterial blood was centrifuged to obtain platelet rich plasma.
Platelet aggregation inhibitory ratio was calculated by the following formula: [formula] Tc: Aggregation degree where only a solvent was added. Ts: Aggregation degree where a solution of the test compound was added.

platelet aggregation [2] = experiment: Platelet aggregation inhibitory activity ex vivo (by oral administration); format: in vivo, male Wistar ST rats; conditions: 1 hour, collagen 7 to 10 μg/ml, rat
Procedure: Platelet aggregation inhibitory activity ex vivo (by oral administration)
A group of 8 male Wistar ST rats each weighing about 250 grams were used. To the test animal was orally administered 4 ml/kg of a solution made by suspending a test compound in 1% aqueous tragacanth solution, and one hour later blood was collected from common carotid artery with a cannula. […] The residue was further centrifuged by […] for 15 minutes and the supernatant was recovered as poor platelet plasma (PPP). The plasma samples were used for assaying the platelet aggregating ability.
As an aggregation inducer, 7 to 10 μg/ml of collagen (Hormon-Chemie) was used.
Platelet Aggregation-inhibitory ratio was calculated by the following formula: [formula] A: Aggregating ratio of the group (control) in which only 1% aqueous tragacanth solution was administered.
B: Aggregating ratio of the group in which a solution of the test compound in tragacanth solution was administered.

[3] = system: rat left coronary artery ligation-induced cardiac infarction; experiment: Activity to rat left coronary artery ligation-induced cardiac infarction; format: in vivo, male SD rats; conditions: 60 minutes prior to ligation
Description: Activity of the compounds (I) to rat left coronary artery ligation-induced cardiac infarction
A group of 8 male SD rats weighing 200 to 250 g were used. The rats were fixed at the dosal position under light ether paralysis, subjected to longitudinal incission in about 1.5 cm along the sternal left line to make thoractonomy under breaking the heart sac and exposing the heart. After ligating the left main coronary artery at 1 to 2 mm from the origin with black blade silk suture (Hama Ika Kogyo, 4-0), the heart was returned at the original position and the breast was closed immediately. The bilateral breast was pressed to exclude the air in the thoracic cavity to resume respiration. […] Twenty-four hours after ligation, the blood was collected from the ventral vena cava, and the rat was killed by complete bleeding. The heart was taken out, and the cross circular slice (about 2 mm) at the central part of the heart was incubated at 37° C. in the dark for 20 minutes in 20 ml of 1% solution of TTC (tryphenyl tetrazolium chloride, Wako Junyaku) in 0.09 M phosphate buffer (pH 8.6). The slice was photographed under a stereoscopic microscope, and the colored slides were prepared therefrom. The slides were projected on the wall, and the sections, the infarction parts (TTC non-dyed part) and non-infarction parts (TTC dyed part), were traced. So, the area of the infarction part in the total section area was calculated. A solution made by suspending the test compound in 1% aqueous tragacanth solution was orally administered 60 minutes prior to the coronary artery ligation. [formula] A: Infarction ratio where only 1% tragacanth solution was administered for control.
B: Infarction ratio where the tragacanth solution containing the test compound was administered.

Row | Structure (SMILES) | inhibition at 1 µM (platelet aggregation [1]; 10^-6 M) | inhibition at 0.1 µM (platelet aggregation [1]; 10^-7 M) | also measured
1 | CC(Nc1nnc(-c2ccccc2)c2ccccc12)c1ccccc1 (racemic) [1 (DL)] | 84% | 72.2% | ex vivo Inhibitory ratio (p.o.) (platelet aggregation [2]; 1 mg/kg p.o.): 76.2%; ex vivo Inhibitory ratio (p.o.) (platelet aggregation [2]; 3 mg/kg p.o.): 79.8%
2 | CCC(Nc1nnc(-c2ccccc2)c2ccccc12)c1ccccc1 (racemic) [2 (DL)] | 96.4% | 100% | ex vivo Inhibitory ratio (p.o.) (platelet aggregation [2]; 1 mg/kg p.o.): 37.8%; ex vivo Inhibitory ratio (p.o.) (platelet aggregation [2]; 3 mg/kg p.o.): 52.3%; ex vivo Inhibitory ratio (p.o.) (platelet aggregation [2]; 10 mg/kg p.o.): 94.5%
3 | CCCC(Nc1nnc(-c2ccccc2)c2ccccc12)c1ccccc1 (racemic) [3 (DL)] |  | 65.9% | inhibition at 0.3 µM (platelet aggregation [1]): 96.8%
4 | CC(C)C(Nc1nnc(-c2ccccc2)c2ccccc12)c1ccccc1 (racemic) [4 (DL)] | 96.6% | 49.3% | 
5 | CCCCC(Nc1nnc(-c2ccccc2)c2ccccc12)c1ccccc1 (racemic) [5 (DL)] | 98.4% | 20.6% | 
6 | CC(C)(C)C(Nc1nnc(-c2ccccc2)c2ccccc12)c1ccccc1 (racemic) [8 (DL)] | 100% | 100% | ex vivo Inhibitory ratio (p.o.) (platelet aggregation [2]; 1 mg/kg p.o.): 22.0%; ex vivo Inhibitory ratio (p.o.) (platelet aggregation [2]; 3 mg/kg p.o.): 35.1%; ex vivo Inhibitory ratio (p.o.) (platelet aggregation [2]; 10 mg/kg p.o.): 69.9%
7 | CC(Nc1nnc(-c2ccc(Cl)cc2)c2ccccc12)c1ccccc1 (racemic) [34 (DL)] | 100% |  | 
8 | Cc1ccc(C(C)Nc2nnc(-c3ccccc3)c3ccccc23)cc1 (racemic) [56 (DL)] |  | 92.9% | 
9 | Cc1cccc(C(C)Nc2nnc(-c3ccccc3)c3ccccc23)c1 (racemic) [57 (DL)] |  | 90.3% | ex vivo Inhibitory ratio (p.o.) (platelet aggregation [2]; 1 mg/kg p.o.): 61.8%
10 | Cc1ccccc1C(C)Nc1nnc(-c2ccccc2)c2ccccc12 (racemic) [58 (DL)] |  | 89.9% | 
11 | CCc1ccc(C(C)Nc2nnc(-c3ccccc3)c3ccccc23)cc1 (racemic) [59 (DL)] |  | 56.5% | 
12 | COc1ccc(C(C)Nc2nnc(-c3ccccc3)c3ccccc23)cc1 (racemic) [69 (DL)] |  | 21% | inhibition at 0.3 µM (platelet aggregation [1]): 74.7%
13 | COc1cccc(C(C)Nc2nnc(-c3ccccc3)c3ccccc23)c1 (racemic) [72 (DL)] | 94.8% | 14.9% | 
14 | COc1ccccc1C(C)Nc1nnc(-c2ccccc2)c2ccccc12 (racemic) [73 (DL)] |  | 93.3% | 
15 | COc1ccc(C(C)Nc2nnc(-c3ccccc3)c3ccccc23)cc1OC (racemic) [78 (DL)] |  | 6.2% | inhibition at 0.3 µM (platelet aggregation [1]): 93.6%
16 | CC(Nc1nnc(-c2ccccc2)c2ccccc12)c1ccc2c(c1)OCO2 (racemic) [79 (DL)] |  | 6.3% | inhibition at 0.3 µM (platelet aggregation [1]): 95.3%
17 | CC(Nc1nnc(-c2ccccc2)c2ccccc12)c1ccc(Cl)cc1 (racemic) [80 (DL)] |  | 26.3% | inhibition at 0.3 µM (platelet aggregation [1]): 93.3%

Row | Structure (SMILES) | inhibition at 1 µM (platelet aggregation [1]; 10^-6 M) | inhibition at 0.1 µM (platelet aggregation [1]; 10^-7 M) | also measured
18 | CC(Nc1nnc(-c2ccccc2)c2ccccc12)c1cccc(Cl)c1 (racemic) [81 (DL)] | 98.3% | 40.7% | ex vivo Inhibitory ratio (p.o.) (platelet aggregation [2]; 10 mg/kg p.o.): 72.5%
19 | CC(Nc1nnc(-c2ccccc2)c2ccccc12)c1ccccc1Cl (racemic) [82 (DL)] | 65.5% |  | inhibition at 0.3 µM (platelet aggregation [1]): 58.5%
20 | CC(Nc1nnc(-c2ccccc2)c2ccccc12)c1ccc(F)cc1 (racemic) [85 (DL)] |  | 10.2% | inhibition at 0.3 µM (platelet aggregation [1]): 94.1%
21 | CC(Nc1nnc(-c2ccccc2)c2ccccc12)c1cccc(F)c1 (racemic) [86 (DL)] | 100% |  | ex vivo Inhibitory ratio (p.o.) (platelet aggregation [2]; 1 mg/kg p.o.): 40.5%
22 | CC(Nc1nnc(-c2ccccc2)c2ccccc12)c1ccccc1F (racemic) [87 (DL)] | 52.4% |  | 
23 | CC(Nc1nnc(-c2ccccc2)c2ccccc12)c1ccc(C(F)(F)F)cc1 (racemic) [91 (DL)] | 22.5% |  | 
24 | CC(Nc1nnc(-c2ccccc2)c2ccccc12)c1cccc(C(F)(F)F)c1 (racemic) [92 (DL)] | 89.5% | 1.5% | 
25 | C[C@@H](Nc1nnc(-c2ccccc2)c2ccccc12)c1ccccc1 [1 (D), D-1-α-methylbenzylamino-4-phenylphthalazine] |  |  | in vitro Inhibitory ratio (platelet aggregation [1]; 10^-6 M, 1 µM): 100%; in vitro Inhibitory ratio (platelet aggregation [1]; 10^-7 M, 0.1 µM): 100%; ex vivo Inhibitory ratio (p.o.) (platelet aggregation [2]; 1 mg/kg p.o.): 65.5%; ex vivo Inhibitory ratio (p.o.) (platelet aggregation [2]; 3 mg/kg p.o.): 80.2%; ex vivo Inhibitory ratio (p.o.) (platelet aggregation [2]; 10 mg/kg p.o.): 88.5%; Cardiac infarction inhibitory ratio ([3]; 2 mg/kg p.o.): 81.1%; Cardiac infarction inhibitory ratio ([3]; 10 mg/kg p.o.): 76.6%
26 | CC(=O)Oc1ccccc1C(=O)O [Aspirin, reference compound] |  |  | Cardiac infarction inhibitory ratio ([3]; 100 mg/kg p.o.): 10.7%
27 | CC(C)(Nc1nnc(-c2ccccc2)c2ccccc12)c1ccccc1 [Compound No. 119, 1-α,α-dimethylbenzylamino-4-phenylphthalazine] |  | 93% | 
28 | c1ccc(CCCNc2nnc(-c3ccccc3)c3ccccc23)cc1 [Control 3, reference compound] | 40.7% | 12.6% | 
29 | CC(Cc1ccccc1)Nc1nnc(-c2ccccc2)c2ccccc12 (centres unmarked) [Control 4, reference compound] | 7.1% |  | 
30 | Clc1ccccc1CN1CCc2sccc2C1 [Ticlopidine, reference compound] |  |  | Cardiac infarction inhibitory ratio ([3]; 30 mg/kg p.o.): 10.1%
31 | c1ccc(-c2nnc(NC3(c4ccccc4)CCCCC3)c3ccccc23)cc1 [compound 136] |  | 94.7% | 
32 | Cc1ccc(C(C)(C)Nc2nnc(-c3ccccc3)c3ccccc23)cc1 [compound 166] | 100% | 100% | 
33 | Cc1cccc(C(C)(C)Nc2nnc(-c3ccccc3)c3ccccc23)c1 [compound 167] | 100% | 100% | 
